# Test results as given in ChEMBL document CHEMBL1201862, “PubChem BioAssay data set” (2004).
# Calls of active or inactive are those of the source.
# Assays:
# [1] = HGIII-sPLA2 enzyme inhibition potency – biochemical, QFRET, IC50, dose response (AID 743457);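 further: green fluorescence rise as the enzyme cleaves BODIPY PC-A2 in liposomes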
# [2] = Luminescence Cell-Based Dose Retest to Confirm Inhibitors of Cancer Stem Cells. [Related pubchem assays (depositor defined):AID2717, AID2721]; assay type: functional; conditions: Homo sapiens
# [3] = molecular target: RNA-editing ligase 1, mitochondrial (Trypanosoma brucei brucei, UniProt P86926); experiment: inhibition of trypanosome RNA editing ligase – biochemical, fluorescence, Trypanosoma brucei, dose response (AID 1117295); assay type: functional
# Chain of RNA-editing ligase 1, mitochondrial (P86926 whole entry): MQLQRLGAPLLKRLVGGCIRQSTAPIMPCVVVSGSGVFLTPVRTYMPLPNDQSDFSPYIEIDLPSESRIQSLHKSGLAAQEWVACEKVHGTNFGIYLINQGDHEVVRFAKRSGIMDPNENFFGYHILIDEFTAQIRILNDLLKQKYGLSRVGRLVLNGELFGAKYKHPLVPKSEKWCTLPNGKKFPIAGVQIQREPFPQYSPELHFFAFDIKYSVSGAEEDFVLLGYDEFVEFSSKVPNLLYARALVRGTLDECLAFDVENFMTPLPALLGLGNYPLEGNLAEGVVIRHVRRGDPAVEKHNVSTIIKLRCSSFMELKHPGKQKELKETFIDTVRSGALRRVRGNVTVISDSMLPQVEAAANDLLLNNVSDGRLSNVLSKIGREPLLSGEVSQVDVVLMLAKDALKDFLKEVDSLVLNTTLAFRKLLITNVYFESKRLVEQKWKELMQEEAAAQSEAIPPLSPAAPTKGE
# [4] = molecular target: Eukaryotic translation initiation factor 4E (Mus musculus, UniProt P63073); experiment: blockers of eIF4G binding by eIF4E – biochemical, TR-FRET, dose response (AID 855); assay type: functional;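 further: potency for disrupting eIF4E binding to eIF4GI seen as loss of FRET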
# Chain of Eukaryotic translation initiation factor 4E (P63073 whole entry): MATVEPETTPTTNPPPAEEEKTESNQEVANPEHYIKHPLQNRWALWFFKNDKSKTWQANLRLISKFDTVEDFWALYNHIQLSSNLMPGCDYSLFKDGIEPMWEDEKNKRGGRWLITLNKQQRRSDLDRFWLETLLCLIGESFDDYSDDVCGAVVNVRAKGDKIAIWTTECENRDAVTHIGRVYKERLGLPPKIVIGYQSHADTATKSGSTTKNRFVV
# cells [5] = experiment: cells
# [6] = molecular target: Oxysterols receptor LXR-beta (Homo sapiens, UniProt P55055); assay type: functional, cell-based;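 further: Cell-based luminescence dose-response assay of agonist activity at LXR, run as a confirmatory counterscreen to a daf-12 agonist screen; HEK293 cells with Gal4-LXR fusion and GAL4-driven luciferase reporter; agonist potency from rising luciferase signal of a Gal4-LXR reporter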
# Chain of Oxysterols receptor LXR-beta (P55055 whole entry, the tested form may be a part): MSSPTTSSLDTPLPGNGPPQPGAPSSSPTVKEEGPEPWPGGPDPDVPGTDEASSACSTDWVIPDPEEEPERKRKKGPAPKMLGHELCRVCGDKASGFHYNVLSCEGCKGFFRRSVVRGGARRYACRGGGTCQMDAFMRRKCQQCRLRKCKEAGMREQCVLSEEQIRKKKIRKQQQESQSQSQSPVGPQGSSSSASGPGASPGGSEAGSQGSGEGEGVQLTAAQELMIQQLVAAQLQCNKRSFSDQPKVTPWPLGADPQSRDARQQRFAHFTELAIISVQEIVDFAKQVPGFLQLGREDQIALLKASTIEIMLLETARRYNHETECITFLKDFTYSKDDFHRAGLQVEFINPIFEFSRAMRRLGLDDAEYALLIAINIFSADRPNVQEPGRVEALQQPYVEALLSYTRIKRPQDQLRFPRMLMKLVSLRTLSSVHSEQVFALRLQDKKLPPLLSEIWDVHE
# [7] = molecular target: T1, DNA repair and recombination protein RAD54-like (Homo sapiens, UniProt Q92698); experiment: RAD54 Holliday junction migration blockers – biochemical, fluorescence, cherry-picked samples, dose series, confirmation (AID 651657); assay type: functional
# T1 sequence (Q92698 whole entry): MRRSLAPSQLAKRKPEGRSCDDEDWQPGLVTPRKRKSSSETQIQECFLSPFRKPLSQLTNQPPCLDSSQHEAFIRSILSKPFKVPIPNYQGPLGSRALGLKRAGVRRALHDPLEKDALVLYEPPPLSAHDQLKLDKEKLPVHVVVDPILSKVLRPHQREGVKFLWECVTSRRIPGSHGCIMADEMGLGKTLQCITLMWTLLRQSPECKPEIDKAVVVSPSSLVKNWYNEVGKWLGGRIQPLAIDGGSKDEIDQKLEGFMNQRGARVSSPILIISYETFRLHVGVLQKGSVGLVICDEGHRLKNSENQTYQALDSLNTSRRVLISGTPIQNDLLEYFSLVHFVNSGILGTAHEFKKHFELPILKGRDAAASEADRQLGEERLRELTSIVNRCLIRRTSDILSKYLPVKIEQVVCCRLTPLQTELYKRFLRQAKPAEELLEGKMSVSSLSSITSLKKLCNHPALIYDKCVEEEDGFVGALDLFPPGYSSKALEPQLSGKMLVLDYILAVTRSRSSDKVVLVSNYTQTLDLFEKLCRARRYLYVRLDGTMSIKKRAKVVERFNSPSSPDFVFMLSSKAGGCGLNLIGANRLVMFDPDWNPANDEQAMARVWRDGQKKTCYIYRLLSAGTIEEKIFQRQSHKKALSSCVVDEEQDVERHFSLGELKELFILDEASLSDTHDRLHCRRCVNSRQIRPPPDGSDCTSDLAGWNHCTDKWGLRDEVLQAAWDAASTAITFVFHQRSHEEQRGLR
# [8] = NIH3T3 cell viability loss – ATP luminescence, mouse fibroblasts, counter-screen, dose response (AID 2010); assay type: functional, cell-based;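 further: cells exposed to compound for about 90 hours before reading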
# [9] = molecular target: T2, DNA repair protein RAD52 homolog (Homo sapiens, UniProt P43351); assay type: functional, biochemical
# T2 sequence (P43351 whole entry): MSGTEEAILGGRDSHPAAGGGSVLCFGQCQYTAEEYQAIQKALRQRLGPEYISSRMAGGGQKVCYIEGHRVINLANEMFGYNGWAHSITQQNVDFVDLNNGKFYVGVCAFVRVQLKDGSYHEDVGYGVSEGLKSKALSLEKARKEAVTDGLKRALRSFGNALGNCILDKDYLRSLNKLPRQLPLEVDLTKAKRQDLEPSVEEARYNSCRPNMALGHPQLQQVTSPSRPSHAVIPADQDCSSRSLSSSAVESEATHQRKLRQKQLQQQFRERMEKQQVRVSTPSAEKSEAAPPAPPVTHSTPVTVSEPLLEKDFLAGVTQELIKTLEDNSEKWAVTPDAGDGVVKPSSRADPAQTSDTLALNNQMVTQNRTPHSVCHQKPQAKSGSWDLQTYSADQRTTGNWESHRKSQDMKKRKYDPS
# [10] = Trypanosoma cruzi growth suppression in host cells – NIH3T3 host cells, beta-gal luminescence, confirmation (AID 2044); assay type: functional, cell-based;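 further: intracellular parasites grown in NIH/3T3 mouse fibroblasts as host cells; luminescent beta-galactosidase reporter signal from transgenic T. cruzi replicating inside host cells; inhibitors lower the luminescence signal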
# [11] = cytotoxicity toward MDA-MB-231 breast cancer cells – cell-based, CellTiter-Glo luminescence, cherry-pick, cytotoxicity control for RAD54 inhibitor project, dose response (AID 651692); assay type: functional
# [12] = general mammalian cell viability loss – inhibitor set, cherry-pick, set 2, cytotoxicity control for miR-122 modulator project, dose response (AID 720697); assay type: functional, cell-based
# cells [13] = assay type: functional, cell-based
# [14] = molecular target: T3, Sentrin-specific protease 1 (Homo sapiens, UniProt Q9P0U3); experiment: SENP1 catalytic domain blockers, concentration series – biochemical, kinetic FRET, dose response (AID 651697); assay type: functional; conditions: read-out: IC50_Mean
# T3 sequence (Q9P0U3 whole entry): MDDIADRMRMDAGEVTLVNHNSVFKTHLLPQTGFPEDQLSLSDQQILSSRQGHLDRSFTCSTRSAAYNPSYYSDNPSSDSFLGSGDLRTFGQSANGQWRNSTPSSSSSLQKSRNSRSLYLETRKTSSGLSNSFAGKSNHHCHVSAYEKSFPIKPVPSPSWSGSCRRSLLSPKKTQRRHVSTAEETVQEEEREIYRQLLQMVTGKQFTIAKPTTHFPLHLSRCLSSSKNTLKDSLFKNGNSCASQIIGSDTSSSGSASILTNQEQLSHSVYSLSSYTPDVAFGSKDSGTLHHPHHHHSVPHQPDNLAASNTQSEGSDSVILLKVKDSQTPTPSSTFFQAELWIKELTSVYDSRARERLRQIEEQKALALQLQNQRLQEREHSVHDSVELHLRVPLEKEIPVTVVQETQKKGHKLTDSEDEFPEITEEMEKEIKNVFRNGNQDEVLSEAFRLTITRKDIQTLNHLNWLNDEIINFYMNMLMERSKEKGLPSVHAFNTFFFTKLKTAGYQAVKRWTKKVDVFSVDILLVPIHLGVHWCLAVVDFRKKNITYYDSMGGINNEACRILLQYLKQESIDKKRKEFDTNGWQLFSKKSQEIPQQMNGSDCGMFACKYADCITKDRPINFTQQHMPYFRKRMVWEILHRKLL
# [15] = molecular target: T3, Sentrin-specific protease 1; experiment: Dose response confirmation of small molecule inhibitors of the catalytic domain of the SUMO protease, SENP1 in a FRET assay.; assay type: functional; conditions: read-out: IC50_Mean
# [16] = inhibition of ADAM10 peptide cleavage – biochemical, FRET peptide substrate, recombinant human ADAM10, selectivity assay for ADAM17 exosite inhibitor project, dose response (AID 743259);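 further: ADAM10 enzyme cleaving a FRET peptide substrate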
# [17] = molecular target: Disintegrin and metalloproteinase domain-containing protein 17 (Homo sapiens, UniProt P78536); experiment: exosite inhibitors of ADAM17, dose response, biochemical (AID 743260)
# Chain of Disintegrin and metalloproteinase domain-containing protein 17 (P78536 whole entry, the tested form may be a part): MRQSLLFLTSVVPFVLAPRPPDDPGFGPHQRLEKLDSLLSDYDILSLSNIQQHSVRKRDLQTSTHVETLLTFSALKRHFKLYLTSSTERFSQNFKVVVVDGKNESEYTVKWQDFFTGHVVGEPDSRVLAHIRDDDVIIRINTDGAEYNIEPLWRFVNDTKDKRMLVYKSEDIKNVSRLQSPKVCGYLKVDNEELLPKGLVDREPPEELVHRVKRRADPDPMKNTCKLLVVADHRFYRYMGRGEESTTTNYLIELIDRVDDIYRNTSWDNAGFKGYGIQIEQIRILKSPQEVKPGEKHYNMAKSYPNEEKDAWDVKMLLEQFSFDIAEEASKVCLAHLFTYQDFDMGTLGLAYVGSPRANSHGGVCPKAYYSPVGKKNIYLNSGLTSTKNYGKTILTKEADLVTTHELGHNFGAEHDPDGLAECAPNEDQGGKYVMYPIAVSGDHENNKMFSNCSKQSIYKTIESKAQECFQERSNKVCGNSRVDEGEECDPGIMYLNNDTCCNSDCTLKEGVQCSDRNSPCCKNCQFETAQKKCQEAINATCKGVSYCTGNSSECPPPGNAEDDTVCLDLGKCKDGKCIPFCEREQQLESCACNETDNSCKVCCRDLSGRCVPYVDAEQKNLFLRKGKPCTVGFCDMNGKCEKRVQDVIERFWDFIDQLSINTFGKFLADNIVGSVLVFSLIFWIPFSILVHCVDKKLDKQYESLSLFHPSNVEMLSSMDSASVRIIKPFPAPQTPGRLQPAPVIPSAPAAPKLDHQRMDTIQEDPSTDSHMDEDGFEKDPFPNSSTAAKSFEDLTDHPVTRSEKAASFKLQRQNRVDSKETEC
# [18] = molecular target: T4, Sentrin-specific protease 8 (Homo sapiens, UniProt Q96LD8); assay type: functional
# T4 sequence (Q96LD8 whole entry): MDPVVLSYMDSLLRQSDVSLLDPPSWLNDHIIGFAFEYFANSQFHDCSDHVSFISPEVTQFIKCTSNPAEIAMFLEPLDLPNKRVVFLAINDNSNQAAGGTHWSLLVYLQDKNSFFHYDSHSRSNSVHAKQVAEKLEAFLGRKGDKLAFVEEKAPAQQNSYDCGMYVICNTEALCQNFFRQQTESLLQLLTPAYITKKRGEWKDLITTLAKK
# [19] = molecular target: T4, Sentrin-specific protease 8; assay type: functional; remark: listed apart in the source
# [20] = molecular target: Long-chain-fatty-acid--AMP ligase FadD28 (Mycobacterium tuberculosis, UniProt P9WQ59); experiment: Fluorescence polarization aasay to screen for inhibitors that compete for the binding of FadD28 to a bisubstrate Measured in Biochemical System Using Plate Reader - 2147-01_Inhibitor_Dose_CherryPick_Activity.; assay type: functional, Mycobacterium tuberculosis H37Rv
# Chain of Long-chain-fatty-acid--AMP ligase FadD28 (P9WQ59 whole entry): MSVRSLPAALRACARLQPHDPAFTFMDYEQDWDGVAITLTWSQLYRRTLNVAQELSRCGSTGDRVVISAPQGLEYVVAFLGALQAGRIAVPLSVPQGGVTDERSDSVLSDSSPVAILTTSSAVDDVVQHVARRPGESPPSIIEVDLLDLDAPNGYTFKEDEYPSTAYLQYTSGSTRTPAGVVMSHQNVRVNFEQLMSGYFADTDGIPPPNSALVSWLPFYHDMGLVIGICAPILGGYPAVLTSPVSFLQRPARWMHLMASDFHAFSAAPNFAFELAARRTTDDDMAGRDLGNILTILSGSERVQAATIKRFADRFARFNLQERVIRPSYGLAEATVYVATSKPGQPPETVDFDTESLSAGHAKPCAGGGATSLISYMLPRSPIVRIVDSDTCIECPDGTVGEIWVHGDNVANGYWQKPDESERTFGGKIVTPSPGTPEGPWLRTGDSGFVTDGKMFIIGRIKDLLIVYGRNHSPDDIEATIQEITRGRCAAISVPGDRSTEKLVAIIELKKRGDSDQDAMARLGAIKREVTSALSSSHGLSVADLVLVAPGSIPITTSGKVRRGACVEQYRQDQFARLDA
# [21] = OVCAR-3 cell viability loss – plate reader, dry powder samples, PAX8 inhibitor project, dose response (AID 743044); assay type: functional, cell-based
# [22] = OVCAR8 cell viability loss – plate reader, dry powder samples, PAX8 project, dose response (AID 743197); assay type: functional, cell-based; conditions: OVCAR-8
# Paired box protein Pax-8 = Paired box protein Pax-8 (Homo sapiens, UniProt Q06710); experiment: PAX8 transcriptional activity inhibition in RMG-I – RMG-I cells, luciferase, cherry-pick, dose response (AID 687027); assay type: functional, cell-based;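 further: luciferase reporter driven by Pax8 target thyroperoxidase promoter measured by SteadyGlo luminescence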
# Chain of Paired box protein Pax-8 (Q06710 whole entry, the tested form may be a part): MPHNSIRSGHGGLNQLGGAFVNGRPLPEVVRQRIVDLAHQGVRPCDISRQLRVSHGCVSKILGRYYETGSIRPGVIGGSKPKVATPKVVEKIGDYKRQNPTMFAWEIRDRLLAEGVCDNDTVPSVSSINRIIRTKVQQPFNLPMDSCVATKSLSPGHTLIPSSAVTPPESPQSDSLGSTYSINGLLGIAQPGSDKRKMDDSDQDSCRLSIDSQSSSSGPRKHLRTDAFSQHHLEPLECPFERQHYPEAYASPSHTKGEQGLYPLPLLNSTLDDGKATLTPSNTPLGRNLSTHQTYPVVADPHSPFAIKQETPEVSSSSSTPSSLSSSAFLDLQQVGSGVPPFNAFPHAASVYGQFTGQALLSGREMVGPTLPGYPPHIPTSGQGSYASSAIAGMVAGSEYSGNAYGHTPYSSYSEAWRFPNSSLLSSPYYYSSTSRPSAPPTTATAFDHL
# [23] = molecular target: Arf-GAP with SH3 domain, ANK repeat and PH domain-containing protein 1 (Homo sapiens, UniProt Q9ULH1); assay type: functional;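 further: biochemical fluorescence polarization dose–response screen measuring inhibition of ASAP1; ASAP1 GAP domain stimulating GTP hydrolysis by truncated human ARF1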
# Chain of Arf-GAP with SH3 domain, ANK repeat and PH domain-containing protein 1 (Q9ULH1 whole entry, the tested form may be a part): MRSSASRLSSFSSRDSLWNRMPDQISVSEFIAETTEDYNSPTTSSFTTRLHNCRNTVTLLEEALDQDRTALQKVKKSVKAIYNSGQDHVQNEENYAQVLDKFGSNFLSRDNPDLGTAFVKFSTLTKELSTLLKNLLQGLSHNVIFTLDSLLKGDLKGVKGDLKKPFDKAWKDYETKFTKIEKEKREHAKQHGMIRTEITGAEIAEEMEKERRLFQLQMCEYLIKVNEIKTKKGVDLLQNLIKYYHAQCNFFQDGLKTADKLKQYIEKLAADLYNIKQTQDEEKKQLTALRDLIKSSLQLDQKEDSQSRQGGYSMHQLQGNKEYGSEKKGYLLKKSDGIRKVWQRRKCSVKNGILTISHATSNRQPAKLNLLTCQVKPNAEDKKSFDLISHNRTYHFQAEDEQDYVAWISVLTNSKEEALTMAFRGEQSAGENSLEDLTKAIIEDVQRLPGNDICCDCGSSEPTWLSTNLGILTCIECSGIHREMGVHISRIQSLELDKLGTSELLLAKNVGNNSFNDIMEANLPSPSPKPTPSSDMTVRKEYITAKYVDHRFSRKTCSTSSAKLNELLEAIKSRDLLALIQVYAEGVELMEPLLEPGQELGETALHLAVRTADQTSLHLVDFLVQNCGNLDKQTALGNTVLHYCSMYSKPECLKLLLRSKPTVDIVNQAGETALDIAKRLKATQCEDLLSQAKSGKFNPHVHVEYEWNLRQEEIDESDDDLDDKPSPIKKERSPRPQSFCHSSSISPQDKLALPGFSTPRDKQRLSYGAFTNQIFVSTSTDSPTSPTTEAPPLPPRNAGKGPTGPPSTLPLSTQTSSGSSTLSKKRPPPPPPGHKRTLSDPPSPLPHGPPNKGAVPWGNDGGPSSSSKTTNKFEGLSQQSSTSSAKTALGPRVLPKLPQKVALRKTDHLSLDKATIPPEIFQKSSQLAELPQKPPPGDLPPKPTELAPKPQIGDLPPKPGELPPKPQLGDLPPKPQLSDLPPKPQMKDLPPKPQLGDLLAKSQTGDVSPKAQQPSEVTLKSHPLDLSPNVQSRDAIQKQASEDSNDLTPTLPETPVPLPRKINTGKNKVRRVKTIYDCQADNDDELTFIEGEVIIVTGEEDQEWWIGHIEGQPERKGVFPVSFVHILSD
# [24] = molecular target: ADP-ribosylation factor GTPase-activating protein 1 (Rattus norvegicus, UniProt Q62848); experiment: Fluorescence polarization-based biochemical high throughput dose response screening assay to identify inhibitors of ADP-ribosylation factor GTPase activating protein 1 (ARFGAP1).; assay type: functional
# Chain of ADP-ribosylation factor GTPase-activating protein 1 (Q62848 whole entry, the tested form may be a part): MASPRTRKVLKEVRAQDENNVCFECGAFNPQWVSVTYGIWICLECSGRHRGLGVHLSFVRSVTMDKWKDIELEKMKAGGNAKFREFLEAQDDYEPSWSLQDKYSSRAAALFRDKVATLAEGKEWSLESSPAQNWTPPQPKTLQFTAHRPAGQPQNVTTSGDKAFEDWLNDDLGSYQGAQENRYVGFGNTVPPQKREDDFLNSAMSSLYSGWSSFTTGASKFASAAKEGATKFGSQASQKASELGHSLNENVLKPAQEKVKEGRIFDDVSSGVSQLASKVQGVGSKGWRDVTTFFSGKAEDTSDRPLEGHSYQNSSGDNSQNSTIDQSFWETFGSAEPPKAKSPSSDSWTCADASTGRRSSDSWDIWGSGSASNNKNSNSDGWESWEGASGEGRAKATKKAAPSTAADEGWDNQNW
# [25] = molecular target: Photoreceptor-specific nuclear receptor (Homo sapiens, UniProt Q9Y5X4); assay type: functional, cell-based;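 further: CHO-S cells with Gal4-NCOR and VP16-NR2E3 two-hybrid luciferase reporter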
# Chain of Photoreceptor-specific nuclear receptor (Q9Y5X4 whole entry, the tested form may be a part): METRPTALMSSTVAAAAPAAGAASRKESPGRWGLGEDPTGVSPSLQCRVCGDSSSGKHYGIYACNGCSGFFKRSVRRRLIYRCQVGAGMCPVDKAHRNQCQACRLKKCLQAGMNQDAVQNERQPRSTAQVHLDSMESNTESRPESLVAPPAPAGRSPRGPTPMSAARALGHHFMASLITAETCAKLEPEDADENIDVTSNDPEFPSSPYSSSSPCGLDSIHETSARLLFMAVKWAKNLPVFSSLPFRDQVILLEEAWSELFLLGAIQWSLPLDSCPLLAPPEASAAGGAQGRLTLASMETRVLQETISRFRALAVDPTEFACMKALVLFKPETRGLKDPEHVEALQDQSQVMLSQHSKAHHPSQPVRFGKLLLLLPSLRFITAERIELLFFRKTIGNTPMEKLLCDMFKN
# [26] = molecular target: T5, Rac GTPase-activating protein 1 (Homo sapiens, UniProt Q9H0H5); experiment: blockers of MgcRacGAP-driven Rac1 GTP hydrolysis – biochemical, ADP Hunter fluorescence, primary and confirmatory, confirmation (AID 624330); assay type: functional
# T5 sequence (Q9H0H5 whole entry): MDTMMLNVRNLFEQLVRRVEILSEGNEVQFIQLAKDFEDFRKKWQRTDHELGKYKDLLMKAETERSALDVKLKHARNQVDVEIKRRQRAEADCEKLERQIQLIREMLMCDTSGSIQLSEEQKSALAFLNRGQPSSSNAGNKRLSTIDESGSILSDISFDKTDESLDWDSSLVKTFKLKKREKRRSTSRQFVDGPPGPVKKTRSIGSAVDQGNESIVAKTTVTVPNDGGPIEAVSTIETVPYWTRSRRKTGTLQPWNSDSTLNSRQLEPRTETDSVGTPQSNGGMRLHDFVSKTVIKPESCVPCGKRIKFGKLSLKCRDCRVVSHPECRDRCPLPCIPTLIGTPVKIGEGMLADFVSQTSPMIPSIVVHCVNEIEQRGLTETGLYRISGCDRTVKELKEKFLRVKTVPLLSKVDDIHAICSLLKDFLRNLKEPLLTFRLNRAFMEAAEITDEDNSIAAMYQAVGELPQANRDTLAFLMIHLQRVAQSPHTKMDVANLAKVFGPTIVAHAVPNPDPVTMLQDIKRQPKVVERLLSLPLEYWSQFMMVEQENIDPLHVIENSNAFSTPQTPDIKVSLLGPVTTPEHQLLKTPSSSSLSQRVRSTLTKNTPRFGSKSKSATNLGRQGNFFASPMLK
# [27] = viability loss in HeLa cells – cytotoxicity control for MgcRacGAP inhibitor project, dose response (AID 624300); assay type: functional
compound,measurement,setting,value
CC(C)Oc1ccc(CC(=O)NN=C(S)Nc2ccccc2)cc1,IC50,[1],> 122 µM (inactive)
COc1ccc(CN2C(=O)c3cccnc3C2Nc2cc(Cl)ccc2OC)cc1 (stereo not given),AC50,[2],> 195 µM (inactive)
same,IC50,[3],16.1 µM (inactive)
same,IC50,[4],14.4 µM (active)
Fc1cccc(Cl)c1/C=C/c1cnc2ccccc2n1,EC50,cells [5],> 67.5 µM (inactive)
same,EC50,[6],> 67.5 µM (inactive)
CCN(CC)CCCN(C(=O)c1ccco1)c1nc(-c2ccc(Cl)cc2)cs1,AC50,[7],45.1 µM (active)
same,EC50,[8],9.32 µM (active)
same,AC50,[9],19.2 µM (active)
same,EC50,[10],0.87 µM (active)
same,AC50,[11],22.9 µM (active)
CCCCN1C=C(C(=O)OC)C(c2ccccc2C(F)(F)F)C(C(=O)OC)=C1,AC50,[12],8.63 µM (active)
Cc1c(Cl)c(C(=O)NN=C(S)Nc2ccccc2)nn1C,IC50,[1],> 122 µM (inactive)
CCc1nnc(NS(=O)(=O)c2ccc(N/C=C3/C(=O)NC(=O)N(c4ccccc4)C3=O)cc2)s1,IC50,cells [13],64.4 µM (inactive)
Cc1cc2c(cc1C)NP(=S)(c1ccccc1)N2,EC50,cells [5],> 67.6 µM (inactive)
same,EC50,[6],> 67.6 µM (inactive)
Cc1c(N2C(=O)/C(=C/c3ccc(N(C)C)cc3)N(C)C2=S)c(=O)n(-c2ccccc2)n1C,IC50,[14],19.5 µM (active)
same,IC50,[15],36.2 µM (inactive)
C=CCC[C@@H](Cc1ccc(F)cc1)C(=O)OC[C@@H]1CCCN1C(=O)[C@H](CC=C)CC(=O)N[C@H](CO)Cc1ccccc1,IC50,[16],15.2 µM (inactive)
same,IC50,[17],> 69.5 µM (inactive)
CCc1nc2ccc(C(=O)Nc3ccc4c(c3)OCC(=O)N4)cn2c1N(CC)Cc1cccc(Br)c1,IC50,[16],> 69.5 µM (inactive)
same,IC50,[17],> 69.5 µM (inactive)
COc1ccc(C(=O)N2C=Cc3ccccc3C2C#N)cc1 (stereo not given),IC50,[18],> 100 µM (inactive)
same,IC50,[19],5.74 µM (active)
Cn1c(=O)c2cc(NC(=S)NC3CCCCC3)ccc2n1Cc1ccc(Cl)cc1,AC50,[20],58 µM (active)
COc1cc2c(cc1NC(=O)c1ccccc1-c1ccccc1C(=O)O)-c1ccccc1C2,AC50,[20],> 100 µM (inactive)
C[C@H](CO)N1C[C@H](C)[C@@H](CN(C)Cc2ccc(Cl)c(Cl)c2)Oc2ccc(NS(=O)(=O)c3ccccc3)cc2CC1=O,AC50,[21],39.7 µM (active)
same,AC50,[22],67.9 µM (active)
same,AC50,Paired box protein Pax-8,9.45 µM (active)
O=C(NCc1ccncc1)C(=O)N/N=C/c1ccc(OCc2ccccc2)cc1,IC50,[23],13.2 µM (inactive)
same,IC50,[24],10.3 µM (inactive)
C[C@H]1CCC/C=C/[C@@H]2C[C@H](O)C[C@H]2[C@H](O)[C@H]([S+]([O-])c2ccc(O)cc2)CC(=O)O1 (stereo not given in full),IC50,[25],2.05 µM (active)
same,IC50,[26],231 µM (active)
same,CC50,[27],4.03 µM (active)
C=CCNC1=NC(c2ccccc2C(F)(F)F)C(C(=O)OC)=C(C)N1Cc1ccc(C(F)(F)F)cc1 (stereo not given),IC50,[3],> 96.6 µM (inactive)
